# “Also recorded” adds a separate entry of the source.
# Legend:
# integrin α1β1 = test system: integrin α1β1; parameters: method as in 3 sources, ref [4]; PMID 19693543; doi:10.1007/s00441-009-0834-6; 4 Barczyk M. Carracedo S. Gullberg D. Integrins Cell Tissue Res. 339 1 2010 269 280 19693543 10.1007/s00441-009-0834-6 PMC2784866 ||| ref [12] = [12]; PMID 22654115; doi:10.1074/jbc.M112.353144; 12 Hamaia S.W. Pugh N. Raynal N. Nemoz B. Stone R. Gullberg D. Bihan D. Farndale R.W. Mapping of potent and specific binding motifs, GLOGEN and GVOGEA, for integrin alpha1beta1 using collagen toolkits ||| ref not given; details: cited from earlier work
# From the text: The collagen-binding integrin family is complete, with four established members, α1β1, α2β1, α10β1 and α11β1. These are highly-conserved, heterodimeric receptors with an important structural feature in common, the presence of an I (inserted) domain which contains the metal ion-dependent adhesion site (MIDAS). The MIDAS is a constellation of electronegative residues at the distal surface of this 200-residue domain that, in the resting, non-ligated state, can co-ordinate a Mg^2 + ion. […] Many related motifs have now been identified using the Collagen Toolkits developed in this laboratory for the purpose. These are libraries of overlapping peptides of 27 amino acids of collagen primary sequence (guest sequence), flanked ... || Why would collagen II differ in this respect?
# C2C12-α2β1 cells = experiment: xCELLigence real-time adhesion of C2C12-α2β1 cells; format: cell-based, mouse; details: up to 1 h, compared to GFOGER, Fig. 6B
# [1] = test system: human recombinant GST-α10-R215Q I-domain; experiment: SPBA of α10-R215Q mutant I domain; format: binding; details: 2 mM MgCl2, relative to wild type α10 I domain, Fig. 8F, Fig. 9
# From the text: The I domain was first applied to the collagen II and III Toolkits in the presence or absence of Mg^2 +, detected using anti-GST as before, and data are shown in Fig. 9A and B. α10-R215Q I domain binding was Mg^2 +-dependent, reproducing the wild type Toolkit II data shown in Fig. 1A.
# (§1) pGEX-2T-α1, α2 and α10 I were used to generate the Q to R or R to Q mutations using QuikChange PCR kit from Stratagene (200518).
# To express α2 wild type and mutant I domains, a 100-ml overnight culture of transformants (Origami strain) was used to inoculate 1 L of Luria broth containing 100 μg/ml ampicillin, 15 μg/ml Kanamycin and 12.5 μg/ml Tetracyclin. The culture was grown for 2 h at 37 °C and then induced at room temperature for 4 h with isopropyl β-D-thiogalactopyranoside (0.1 mM, Melford Laboratories, UK, #MB1008). Cells were harvested by centrifugation at 4500g for 20 min, and pellets for GST-fusion were resuspended in 10 ml Dulbecco's phosphate-buffered saline, containing 1 tablet of protease inhibitor cocktail (Roche) and 5 mg of lysozyme (Fluka). Suspensions were sonicated and Triton X-100 was added to 1% (v/v). Suspensions were mixed on a roller for 15 min at room temperature, then centrifuged at 18,000 × g for 20 min, and supernatants were pooled. […]
# (§2) I domain adhesion was determined colorimetrically, as described, here termed solid phase binding assay (SPBA). […]
# C2C12-α11β1 cells = experiment: xCELLigence real-time adhesion of C2C12-α11β1 cells; format: cell-based, mouse; details: up to 1 h, compared to GFOGER, Fig. 6D
# C2C12-α1β1 cells = experiment: xCELLigence real-time adhesion of C2C12-α1β1 cells; format: cell-based, mouse; details: up to 1 h, compared to GFOGER, Fig. 6A
# α1-Q214R I domain = experiment: SPBA of α1-Q214R mutant I domain; format: binding, human; details: Gln214 replaced with Arg, Fig. 8D
# From the text: (§3) To test this hypothesis, we replaced the corresponding Q214 and Q215 in α1 and α2 I domains, respectively, with R, as in α10, and we replaced the R215 in the α10 I domain with Q, as in α1 and α2.
# (§4) Fig. 8 Arginine substitution of I domain surface reduces binding to Toolkit peptide III-4. Wild type I domain from α1, α2 and α10 were allowed to adhere to Toolkit peptide III-4 that contains GROGER, as described in Fig. 1, and binding is shown in A, B and C, respectively. In D and E, the natural glutamine residues of α1, Q214, and of α2, Q215, was replaced with arginine. In F, the natural arginine, R215, of α10 was replaced with glutamine.
# as §1
# I domain adhesion was determined colorimetrically, as described, here termed solid phase binding assay (SPBA). Peptides were coated at 10 μg/ml for 1 h at 22 °C on Immulon-2 HB 96-well plates (Thermo Life Sciences, Basingstoke, UK), and blocked for 1 h with 200 μl of TBS containing 50 mg/ml bovine serum albumin. Wells were washed four times with 200 μl of the adhesion buffer (TBS with 1 mg/ml bovine serum albumin) before adding 100 μl of adhesion buffer containing 10 μg/ml of recombinant GST I domains in the presence of either 2 mM MgCl2 or EDTA for 1 h at room temperature. […]
# α2-Q215R I domain = experiment: SPBA of α2-Q215R mutant I domain; format: binding, human; details: Gln215 replaced with Arg, Fig. 8E
# From the text: as §3, §4, §1
# To express α2 wild type and mutant I domains, a 100-ml overnight culture of transformants (Origami strain) was used to inoculate 1 L of Luria broth containing 100 μg/ml ampicillin, 15 μg/ml Kanamycin and 12.5 μg/ml Tetracyclin. The culture was grown for 2 h at 37 °C and then induced at room temperature for 4 h with isopropyl β-D-thiogalactopyranoside (0.1 mM, Melford Laboratories, UK, #MB1008). […]
# as §2
Substance,Affinity for integrin α1β1 (integrin α1β1; ref [12]),"Affinity for integrin α1β1, discussion (integrin α1β1; ref not given)",Adhesion of C2C12-α2β1 cells to short THP (time course) (C2C12-α2β1 cells),Binding of α10-R215Q I domain [1],Adhesion of C2C12-α11β1 cells to short THP (time course) (C2C12-α11β1 cells),Adhesion of C2C12-α1β1 cells to short THP (time course) (C2C12-α1β1 cells),Binding of α1-Q214R I domain (α1-Q214R I domain),Binding of α2-Q215R I domain (α2-Q215R I domain)
GLOGEN [short THP containing GLOGEN],high-affinity ligand,high-affinity site,,,,,,
GROGER [short triple-helical peptide containing GROGER],,,bound quite well,restored binding; also recorded: better binding,bound quite well,bound quite well,impaired their binding; also recorded: failed to bind; also recorded: collapse of binding,impaired their binding; also recorded: failed to bind; also recorded: collapse of binding
